Test results reported in patent publication US12281080B2, “Quinoline-based compounds and methods of inhibiting CDK8/19” (University of South Carolina, priority 2018, dated 2025).
pIC50: −log10 of the molar value.

Assays:
ERK8 (MAPK15) = ERK8 (MAPK15) (Homo sapiens (Human), UniProt Q8TD08); assay: KINOMEscan scanMAX; type: binding; settings: 2000 nM; read-out: Percent Control
PIK3CD = PIK3CD (Homo sapiens (Human), UniProt O00329); assay: KINOMEscan scanMAX; type: binding; settings: 2000 nM; read-out: Percent Control
CSNK1E = CSNK1E (Homo sapiens (Human), UniProt P49674); assay: KINOMEscan scanMAX; type: binding; settings: 2000 nM; read-out: Percent Control
FGR = FGR (Homo sapiens (Human), UniProt P09769); assay: KINOMEscan scanMAX; type: binding; settings: 2000 nM; read-out: Percent Control
PCTK3 (CDK18) = PCTK3 (CDK18) (Homo sapiens (Human), UniProt Q07002); assay: KINOMEscan scanMAX; type: binding; settings: 2000 nM; read-out: Percent Control
PRKCE = PRKCE (Homo sapiens (Human), UniProt Q02156); assay: KINOMEscan scanMAX; type: binding; settings: 2000 nM; read-out: Percent Control
PAK3 = PAK3 (Homo sapiens (Human), UniProt O75914); assay: KINOMEscan scanMAX; type: binding; settings: 2000 nM; read-out: Percent Control
[1] = Mouse pharmacokinetics, intraperitoneal, serum; type: in vivo, mice
Method: […] Blood samples were collected at different time points (5 mice per time point) and Senexin C concentration in the serum was measured by LC/MS/MS.

EPHA5 = EPHA5 (Homo sapiens (Human), UniProt P54756); assay: KINOMEscan scanMAX; type: binding; settings: 2000 nM; read-out: Percent Control
MET = MET (Homo sapiens (Human), UniProt P08581); assay: KINOMEscan scanMAX; type: binding; settings: 2000 nM; read-out: Percent Control
CXCL1 = assay: QPCR gene expression in TNFα-treated HEK293 cells; type: cell-based, human; settings: Homo sapiens, HEK293; range stated for all three genes
From the text: (§1) Two types of cell-based assays for CDK8/19 inhibition were used to test the efficacy of quinoline quinolone compounds described herein (FIG. 3A). The first cell-based assay, which measures the effects of CDK8/19 inhibitors on RNA levels of CDK8/19-regulated genes by quantitative reverse transcription-PCR (QPCR), is based on the ability of CDK8/19 inhibitors to suppress the induction of NFκB-inducible genes by TNFα and to inhibit basal expression of MYC in human embryonic kidney (HEK) 293 cells, as previously described. In this assay, 293 cells growing in DMEM (High-glucose) media supplemented with 10% FBS are pre-treated with the tested inhibitors or DMSO control for 1 hour and then treated with 10 ng/mL TNFα (an activator of NFκB) for 2 hours (in the presence or absence of the tested inhibitors), followed by RNA extraction and QPCR analysis of RNA expression of specific genes conducted as described (Chen et al., ibid), using housekeeping genes RPL13A and GAPDH as normalization standards. […] All the quinoline derivatives inhibited the expression of all three genes.

MYC = assay: QPCR gene expression in TNFα-treated HEK293 cells; type: cell-based, human; settings: Homo sapiens, HEK293; range stated for all three genes
From the text: as §1

IL8 = assay: QPCR gene expression in TNFα-treated HEK293 cells; type: cell-based, human; settings: Homo sapiens, HEK293; range stated for all three genes
From the text: as §1

AKT2 = AKT2 (Homo sapiens (Human), UniProt P31751); assay: KINOMEscan scanMAX; type: binding; settings: 2000 nM; read-out: Percent Control
CDK4 = CDK4 (Homo sapiens (Human), UniProt P11802); assay: KINOMEscan scanMAX; type: binding; settings: 2000 nM; read-out: Percent Control
SGK2 = SGK2 (Homo sapiens (Human), UniProt Q9HBY8); assay: KINOMEscan scanMAX; type: binding; settings: 2000 nM; read-out: Percent Control
ABL2 = ABL2 (Homo sapiens (Human), UniProt P42684); assay: KINOMEscan scanMAX; type: binding; settings: 2000 nM; read-out: Percent Control
CDKL5 = CDKL5 (Homo sapiens (Human), UniProt O76039); assay: KINOMEscan scanMAX; type: binding; settings: 2000 nM; read-out: Percent Control
PKAC-alpha (PRKACA) = PKAC-alpha (PRKACA) (Homo sapiens (Human), UniProt P17612); assay: KINOMEscan scanMAX; type: binding; settings: 2000 nM; read-out: Percent Control
CASK = CASK (Homo sapiens (Human), UniProt O14936); assay: KINOMEscan scanMAX; type: binding; settings: 2000 nM; read-out: Percent Control
[2] = test system: NFκB-dependent promoter in CDK8/19 deficient (double-knockout) reporter cells; assay: NFκB-dependent luciferase reporter assay, CDK8/19 double-knockout vs wild-type 293 cells; settings: double-knockout vs parental reporter cells
From the text: The second cell-based assay measures the effects of CDK8/19 on the expression of firefly luciferase reporter from a NFκB-dependent promoter in 293 cells.

PHKG2 = PHKG2 (Homo sapiens (Human), UniProt P15735); assay: KINOMEscan scanMAX; type: binding; settings: 2000 nM; read-out: Percent Control
TGFBR1 = TGFBR1 (Homo sapiens (Human), UniProt P36897); assay: KINOMEscan scanMAX; type: binding; settings: 2000 nM; read-out: Percent Control
LRRK2 = LRRK2 (Homo sapiens (Human), UniProt Q5S007); assay: KINOMEscan scanMAX; type: binding; settings: 2000 nM; read-out: Percent Control
FLT3(K663Q) = FLT3(K663Q) (Homo sapiens (Human), UniProt P36888, K663Q); assay: KINOMEscan scanMAX; type: binding; settings: 2000 nM; read-out: Percent Control
PYK2 (PTK2B) = PYK2 (PTK2B) (Homo sapiens (Human), UniProt Q14289); assay: KINOMEscan scanMAX; type: binding; settings: 2000 nM; read-out: Percent Control
TNK1 = TNK1 (Homo sapiens (Human), UniProt Q13470); assay: KINOMEscan scanMAX; type: binding; settings: 2000 nM; read-out: Percent Control
AXL = AXL (Homo sapiens (Human), UniProt P30530); assay: KINOMEscan scanMAX; type: binding; settings: 2000 nM; read-out: Percent Control
[3] = Serum and tumor PK in mice bearing 22rv1 xenograft tumors; type: in vivo; settings: i.p. 20 mg/kg, male NcrNU mice
Method: To evaluate the PK of Senexin C in tumor tissues, Senexin C dissolved in 5% Dextrose was administered i.p. to male NcrNU mice bearing 22rv1 xenograft tumors (300˜500 mm^3) at 20 mg/kg. Both blood and tumor samples were collected at three different time points (3 mice per time point) after administration and Senexin C concentration in the serum and tumor tissue was measured by LC/MS/MS.

DMPK = DMPK (Homo sapiens (Human), UniProt Q09013); assay: KINOMEscan scanMAX; type: binding; settings: 2000 nM; read-out: Percent Control
MELK = MELK (Homo sapiens (Human), UniProt Q14680); assay: KINOMEscan scanMAX; type: binding; settings: 2000 nM; read-out: Percent Control
Sequence of MELK (Q14680 whole entry): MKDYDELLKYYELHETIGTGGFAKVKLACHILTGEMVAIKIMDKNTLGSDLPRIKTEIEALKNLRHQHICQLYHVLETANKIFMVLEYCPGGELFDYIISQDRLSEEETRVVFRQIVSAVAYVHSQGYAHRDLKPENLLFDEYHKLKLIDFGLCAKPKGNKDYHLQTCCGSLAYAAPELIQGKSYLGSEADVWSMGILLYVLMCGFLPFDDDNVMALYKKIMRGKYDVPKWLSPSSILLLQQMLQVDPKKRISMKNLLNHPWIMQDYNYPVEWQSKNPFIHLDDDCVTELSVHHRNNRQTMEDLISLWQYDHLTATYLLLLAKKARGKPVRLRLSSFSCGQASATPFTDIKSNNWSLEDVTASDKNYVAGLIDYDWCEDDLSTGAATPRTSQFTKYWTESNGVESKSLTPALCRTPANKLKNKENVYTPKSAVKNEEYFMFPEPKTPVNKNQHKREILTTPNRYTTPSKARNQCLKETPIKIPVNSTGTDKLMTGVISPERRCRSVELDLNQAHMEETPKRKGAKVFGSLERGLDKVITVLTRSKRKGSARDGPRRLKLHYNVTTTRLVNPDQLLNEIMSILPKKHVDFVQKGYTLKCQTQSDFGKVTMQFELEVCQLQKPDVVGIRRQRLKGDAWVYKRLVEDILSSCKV

Sequence of PCTK3 (CDK18) (Q07002 whole entry): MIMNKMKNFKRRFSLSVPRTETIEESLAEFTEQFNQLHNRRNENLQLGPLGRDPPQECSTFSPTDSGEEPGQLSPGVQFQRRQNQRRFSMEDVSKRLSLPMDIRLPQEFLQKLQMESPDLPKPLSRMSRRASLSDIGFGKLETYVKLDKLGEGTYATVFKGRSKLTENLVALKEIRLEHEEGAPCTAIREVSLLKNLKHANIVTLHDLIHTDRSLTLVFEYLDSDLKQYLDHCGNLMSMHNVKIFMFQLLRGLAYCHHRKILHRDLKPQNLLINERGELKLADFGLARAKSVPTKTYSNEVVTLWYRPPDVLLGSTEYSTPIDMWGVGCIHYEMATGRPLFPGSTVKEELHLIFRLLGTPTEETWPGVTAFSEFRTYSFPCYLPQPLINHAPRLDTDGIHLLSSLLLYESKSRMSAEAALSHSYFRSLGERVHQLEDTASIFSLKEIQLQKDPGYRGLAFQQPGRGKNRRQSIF
Sequence of AKT2 (P31751 whole entry): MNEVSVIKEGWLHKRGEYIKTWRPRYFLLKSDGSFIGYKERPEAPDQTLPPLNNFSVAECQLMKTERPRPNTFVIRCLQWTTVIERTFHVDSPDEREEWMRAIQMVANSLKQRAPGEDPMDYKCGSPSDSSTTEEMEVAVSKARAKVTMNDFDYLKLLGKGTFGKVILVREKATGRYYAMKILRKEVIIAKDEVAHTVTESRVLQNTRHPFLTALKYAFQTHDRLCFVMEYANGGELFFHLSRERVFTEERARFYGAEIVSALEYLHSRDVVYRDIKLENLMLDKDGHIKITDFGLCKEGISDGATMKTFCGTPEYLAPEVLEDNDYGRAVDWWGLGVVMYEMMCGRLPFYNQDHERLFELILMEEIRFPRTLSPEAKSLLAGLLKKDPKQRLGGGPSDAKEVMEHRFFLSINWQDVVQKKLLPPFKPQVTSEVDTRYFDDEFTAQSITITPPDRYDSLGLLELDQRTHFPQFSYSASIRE
Sequence of SGK2 (Q9HBY8 whole entry): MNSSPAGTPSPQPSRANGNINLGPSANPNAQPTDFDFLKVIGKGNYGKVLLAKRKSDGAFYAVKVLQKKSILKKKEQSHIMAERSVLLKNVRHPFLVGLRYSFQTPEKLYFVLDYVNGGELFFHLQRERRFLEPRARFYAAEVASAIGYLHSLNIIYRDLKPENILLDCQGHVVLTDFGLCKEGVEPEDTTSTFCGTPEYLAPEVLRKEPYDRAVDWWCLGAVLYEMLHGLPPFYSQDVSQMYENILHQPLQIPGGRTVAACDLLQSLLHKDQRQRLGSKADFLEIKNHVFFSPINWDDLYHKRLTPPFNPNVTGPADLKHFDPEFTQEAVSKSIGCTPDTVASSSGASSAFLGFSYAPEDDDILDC
Sequence of CASK (O14936 whole entry): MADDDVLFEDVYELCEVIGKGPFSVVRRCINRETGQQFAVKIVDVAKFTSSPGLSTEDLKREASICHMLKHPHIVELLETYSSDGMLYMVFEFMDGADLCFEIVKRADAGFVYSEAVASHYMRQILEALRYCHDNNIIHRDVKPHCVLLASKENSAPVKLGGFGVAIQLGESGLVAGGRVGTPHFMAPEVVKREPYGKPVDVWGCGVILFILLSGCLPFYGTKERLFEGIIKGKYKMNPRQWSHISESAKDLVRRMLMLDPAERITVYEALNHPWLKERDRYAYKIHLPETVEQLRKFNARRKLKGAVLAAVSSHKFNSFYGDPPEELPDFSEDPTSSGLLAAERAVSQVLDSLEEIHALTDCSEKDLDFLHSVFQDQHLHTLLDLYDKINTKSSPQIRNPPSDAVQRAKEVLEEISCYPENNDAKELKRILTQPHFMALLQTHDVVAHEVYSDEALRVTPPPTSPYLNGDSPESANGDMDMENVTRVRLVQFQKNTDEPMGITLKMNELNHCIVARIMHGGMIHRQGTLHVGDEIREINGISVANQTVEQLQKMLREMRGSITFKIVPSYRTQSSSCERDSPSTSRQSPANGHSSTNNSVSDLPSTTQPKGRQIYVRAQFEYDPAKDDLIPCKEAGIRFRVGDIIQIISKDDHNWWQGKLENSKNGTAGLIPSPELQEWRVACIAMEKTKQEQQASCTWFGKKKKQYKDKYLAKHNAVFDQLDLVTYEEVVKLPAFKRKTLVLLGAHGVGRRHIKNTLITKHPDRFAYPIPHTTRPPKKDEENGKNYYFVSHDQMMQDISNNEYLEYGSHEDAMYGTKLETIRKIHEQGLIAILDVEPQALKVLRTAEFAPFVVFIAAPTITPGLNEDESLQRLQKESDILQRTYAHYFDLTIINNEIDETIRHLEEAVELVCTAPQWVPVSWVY
Sequence of MET (P08581 25-1390): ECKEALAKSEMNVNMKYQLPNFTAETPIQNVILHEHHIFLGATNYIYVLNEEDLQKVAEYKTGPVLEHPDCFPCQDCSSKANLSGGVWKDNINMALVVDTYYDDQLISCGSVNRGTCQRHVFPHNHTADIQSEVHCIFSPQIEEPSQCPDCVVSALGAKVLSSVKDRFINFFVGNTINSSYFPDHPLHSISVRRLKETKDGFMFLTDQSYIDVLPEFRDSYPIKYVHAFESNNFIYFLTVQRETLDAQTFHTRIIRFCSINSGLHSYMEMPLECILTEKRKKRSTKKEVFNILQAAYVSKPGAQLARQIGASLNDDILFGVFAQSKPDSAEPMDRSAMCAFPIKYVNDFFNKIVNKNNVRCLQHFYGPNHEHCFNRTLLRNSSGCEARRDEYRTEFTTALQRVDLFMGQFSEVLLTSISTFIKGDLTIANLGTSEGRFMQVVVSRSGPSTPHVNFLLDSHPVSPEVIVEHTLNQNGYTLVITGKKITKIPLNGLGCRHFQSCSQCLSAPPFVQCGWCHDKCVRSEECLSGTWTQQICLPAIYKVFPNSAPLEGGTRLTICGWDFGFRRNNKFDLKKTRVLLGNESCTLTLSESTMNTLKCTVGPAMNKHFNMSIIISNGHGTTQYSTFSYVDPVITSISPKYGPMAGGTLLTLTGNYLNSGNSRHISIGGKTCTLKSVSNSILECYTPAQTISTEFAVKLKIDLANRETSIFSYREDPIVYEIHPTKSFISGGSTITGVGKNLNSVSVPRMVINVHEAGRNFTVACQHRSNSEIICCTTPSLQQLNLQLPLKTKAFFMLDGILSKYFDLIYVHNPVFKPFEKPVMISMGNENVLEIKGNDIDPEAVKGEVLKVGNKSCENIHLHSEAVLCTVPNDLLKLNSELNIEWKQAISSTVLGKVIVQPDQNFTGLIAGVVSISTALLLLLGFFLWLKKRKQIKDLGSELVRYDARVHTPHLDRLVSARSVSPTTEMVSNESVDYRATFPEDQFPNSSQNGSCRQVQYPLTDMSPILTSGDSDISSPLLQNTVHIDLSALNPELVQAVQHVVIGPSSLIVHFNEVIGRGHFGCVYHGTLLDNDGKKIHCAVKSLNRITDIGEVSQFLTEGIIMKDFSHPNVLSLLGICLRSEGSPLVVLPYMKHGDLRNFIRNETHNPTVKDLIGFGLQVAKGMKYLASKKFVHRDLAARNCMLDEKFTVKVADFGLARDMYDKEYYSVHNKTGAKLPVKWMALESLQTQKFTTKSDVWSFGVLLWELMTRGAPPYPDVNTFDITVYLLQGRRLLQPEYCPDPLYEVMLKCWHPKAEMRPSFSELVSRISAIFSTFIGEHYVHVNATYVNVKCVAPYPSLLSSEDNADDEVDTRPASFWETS
Sequence of FGR (P09769 whole entry): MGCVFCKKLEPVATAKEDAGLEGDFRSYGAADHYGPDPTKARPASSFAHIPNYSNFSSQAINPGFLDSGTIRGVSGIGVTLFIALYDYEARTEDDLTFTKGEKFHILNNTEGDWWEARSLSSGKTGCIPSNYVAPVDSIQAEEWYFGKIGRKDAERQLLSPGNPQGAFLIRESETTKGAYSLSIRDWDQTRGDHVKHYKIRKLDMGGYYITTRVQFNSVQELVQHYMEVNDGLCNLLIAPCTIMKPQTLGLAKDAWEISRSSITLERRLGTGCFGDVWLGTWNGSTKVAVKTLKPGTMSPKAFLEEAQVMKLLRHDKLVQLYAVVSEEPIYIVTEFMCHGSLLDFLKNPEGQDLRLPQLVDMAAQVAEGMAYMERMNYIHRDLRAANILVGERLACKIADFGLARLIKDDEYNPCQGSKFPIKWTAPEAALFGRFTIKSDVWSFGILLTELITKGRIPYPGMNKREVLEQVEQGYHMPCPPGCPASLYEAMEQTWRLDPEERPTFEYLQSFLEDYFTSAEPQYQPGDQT

CN1CCN(C(=O)c2ccc3cc(CCNc4ccnc5ccc(C#N)cc45)ccc3c2)CC1 [compound 6148, 4-((2-(6-(4-methylpiperazine-1-carbonyl)naphthalen-2-yl)ethyl)amino)quinoline-6-carbonitrile]
remaining binding at 2 µM (ERK8 (MAPK15)): 76%
remaining binding at 2 µM (PIK3CD): 61%
remaining binding at 2 µM (CSNK1E): 81%
remaining binding at 2 µM (FGR): 90%
remaining binding at 2 µM (PCTK3 (CDK18)): 97%
remaining binding at 2 µM (PRKCE): 98%
remaining binding at 2 µM (PAK3): 98%
elimination rate k ([1]; i.p. 19 mg/kg, female FVB mice): 0.94 h⁻¹
t1/2 ([1]; i.p. 19 mg/kg, female FVB mice): 44.4 min
Half-life higher than Senexin B ([1]; i.p., mice): > 4 fold
half-life ([1]; mouse, serum, ip, i.p. 19 mg/kg, female FVB mice): 44.4 min
AUC ([1]; mouse, serum, ip, i.p. 19 mg/kg, female FVB mice, read-out: AUC): 1570 ng·h/mL
Cmax ([1]; mouse, serum, ip, i.p. 19 mg/kg, female FVB mice, read-out: Cmax): 1160 ng/mL
bioavailability ([1]; mouse, serum, ip, i.p. 19 mg/kg, female FVB mice, read-out: bioavailability (F %)): 73%
remaining binding at 2 µM (EPHA5): 97%
remaining binding at 2 µM (MET): 90%
pIC50 (CXCL1): 7.46 to 7.60
pIC50 (MYC): 7.46 to 7.60
pIC50 (IL8): 7.46 to 7.60
remaining binding at 2 µM (AKT2): 100%
remaining binding at 2 µM (CDK4): 67%
remaining binding at 2 µM (SGK2): 61%
remaining binding at 2 µM (ABL2): 93%
remaining binding at 2 µM (CDKL5): 70%
remaining binding at 2 µM (PKAC-alpha (PRKACA)): 93%
remaining binding at 2 µM (CASK): 84%
IC50 in CDK8/19-deficient cells relative to wild-type cells [2]: > 50 times
remaining binding at 2 µM (PHKG2): 100%
remaining binding at 2 µM (TGFBR1): 100%
remaining binding at 2 µM (LRRK2): 85%
remaining binding at 2 µM (FLT3(K663Q)): 87%
remaining binding at 2 µM (PYK2 (PTK2B)): 92%
remaining binding at 2 µM (TNK1): 95%
remaining binding at 2 µM (AXL): 95%
Clearance from tumor tissue compared with blood [3]: much slower clearance rate
Kp ([3]; mouse, tumor tissue (relative to serum), ip, read-out: Amount in tumor tissue relative to blood): 5 to 10
remaining binding at 2 µM (DMPK): 98%
remaining binding at 2 µM (MELK): 97%
